Measurements reported in the NIST ThermoML archive (doi:10.1016/j.tca.2010.09.004).
± gives the expanded uncertainty stated by the source.

Conditions: 101.33 kPa, Liquid; for speed of sound: Sing-around technique in a fixed-path interferometer; for mass density: Vibrating tube method

SMILES | speed of sound (293.15 K) [m/s] | mass density (293.15 K) [kg/m3] | speed of sound (298.15 K) [m/s] | mass density (298.15 K) [kg/m3] | speed of sound (303.15 K) [m/s] | mass density (303.15 K) [kg/m3]
CCC(C)=O [butanone] | 1212.3 ± 1 | 805.351 ± 0.19 | 1191 ± 1 | 800.077 ± 0.19 | 1170.8 ± 1 | 794.779 ± 0.19
CCCCNCCCC [dibutylamine] | 1261.2 ± 1 | 759.571 ± 0.2 | 1241.3 ± 1 | 755.457 ± 0.2 | 1222.5 ± 1 | 751.329 ± 0.21
CCCNCCC [dipropylamine] | 1209.2 ± 1.4 | 738.188 ± 0.32 | 1187.7 ± 1.3 | 733.683 ± 0.32 | 1167.1 ± 1.3 | 729.087 ± 0.32
CCN(CC)CC [triethylamine] | 1132.8 ± 1 | 727.515 ± 0.22 | 1111.1 ± 1 | 722.822 ± 0.22 | 1090.7 ± 1 | 718.201 ± 0.22
